# Marks after values point to notes of the source that are not given here.
# What was measured:
# Format in all cases: in vivo
# [1] = tested on: C57BL/6J mice on high-fat diet (HFD); test: Hepatic lipids in HFD mice; conditions: 4 weeks
# Experimental: (§1) The following experiment was performed and approved by the guidelines of the Institutional Animal Care and Use Committee of Central Taiwan University of Science and Technology. The 4-week old male C57BL/6J mice (total amount n=63) were purchased from the National Laboratory Animal Breeding and Research Center (Taipei, Taiwan). After acclimatization for one week, all of the mice were divided randomly into the control (CON) group and the high-fat diet (HFD) group. For the following 12 weeks, the CON group (n=9) was kept on a low-fat diet (Diet 12450B, Research Diets, Inc., New Brunswick, N.J., USA), while the HFD group (n=54) was exposed to a high-fat diet (Diet 12451, Research Diets, New Brunswick, N.J., USA). The low-fat diet was composed of protein 20%, carbohydrate 70% and fat 10%, whereas the high-fat diet was composed of protein 20%, carbohydrate 35%, and fat 45% (of total energy, % kcal). After HFD exposure for 8 weeks, the HFD group was further randomly subdivided into 6 groups (n=9 per group) to receive different treatments by oral gavage once daily for four weeks and on HFD. […] The HF+B1, HF+B2, and […] are collectively termed BB-treated HFD groups in the following examples. The CON mice were administered vehicle. After dosing for 4 weeks, the mice were given no food at night and sacrificed after 12 h of fasting on the next day. All of the individual tissues were collected and weighed, and portions were instantly frozen using liquid nitrogen and kept at −80° C. for subsequent target gene analysis. Blood samples (0.8 mL) were collected for analysis of blood parameters.
# For hepatic lipid extraction, a 0.375 g liver samples were homogenized with 1 mL distill water for 5 minutes. The dried pellet was finally resuspended in 0.5 mL ethanol and analyzed using a triglycerides kit as used for analyzing the serum lipids set forth above.
# hepatocytes of HFD mice = test: Histology of liver tissue (hepatocellular ballooning); conditions: 4 weeks, grade 0 absence, 1 a few cells
# Experimental: as §1
# Small pieces of epididymal white adipose tissue and liver tissue were fixed with formalin (200 g/kg) neutral buffered solution and embedded in paraffin. Sections of 8 μm […] were cut and stained with hematoxylin and eosin. For microscopic examination, a microscope (Leica, DM2500) was used, and the images were taken using a Leica Digital Camera (DFC-425-C).
# Based on previous report, the designation of histological hepatocellular ballooning findings include grade 0 for absence of degeneration, grade 1 for degeneration in a few cells, and […] for degeneration in many cells.
# PEPCK = test: Semi-quantitative RT-PCR of liver mRNA: PEPCK; conditions: HFD mice, 4 weeks, vs HF group
# Experimental: as §1, with “For the following 12 weeks, the CON group (n=9) was kept on a low-fat diet (Diet 12450B, Research Diets, Inc., New Brunswick, N.J., USA), while the HFD group (n=54) was exposed to a high-fat diet (Diet 12451, Research Diets, New Brunswick, N.J., USA). The low-fat diet was composed of protein 20%, carbohydrate 70% and fat 10%, whereas the high-fat diet was composed of protein 20%, carbohydrate 35%, and fat 45% (of total energy, % kcal).” left out
# (§2) Total RNA from liver tissue of mice was isolated with a Trizol Reagent (Molecular Research Center, Inc., Cincinnati, Ohio, USA) according to the manufacturer's instructions. The integrity of the extracted total RNA was examined by 2% agarose gel electrophoresis, and the RNA concentration was determined by the ultraviolet (UV) light absorbency at 260 nm and 280 nm (Spectrophotometer U-2800A, Hitachi). The quality of the RNA was confirmed by ethidium bromide staining of 18S and 28S ribosomal RNA after electrophoresis on 2% agarose gel containing 6% formaldehyde.
# (§3) Levels of mRNA of genes of interest were quantified by semi-quantitative reverse transcription polymerase chain reaction (RT-PCR). […] PCR products were analyzed by 2% agarose gels and stained with ethidium bromide.
# 11β-HSD1 = test: Semi-quantitative RT-PCR of liver mRNA: 11β-HSD1; conditions: HFD mice, 4 weeks, vs HF group
# Experimental: as §1, with “For the following 12 weeks, the CON group (n=9) was kept on a low-fat diet (Diet 12450B, Research Diets, Inc., New Brunswick, N.J., USA), while the HFD group (n=54) was exposed to a high-fat diet (Diet 12451, Research Diets, New Brunswick, N.J., USA). The low-fat diet was composed of protein 20%, carbohydrate 70% and fat 10%, whereas the high-fat diet was composed of protein 20%, carbohydrate 35%, and fat 45% (of total energy, % kcal).” left out
# as §2, §3
smiles,measurement,setting,value
"OCC1O[C@@H](O[C@@H]2Cc3c(O)cc(O)cc3O[C@@H]2c2ccc(O)c(O)c2)C(O)C(O)[C@@H]1O (single isomer, unassigned; (-)) [compound of formula I, (−)-epicatechin-3-O-β-D-allopyranoside]",Liver lipids Total lipid,[1]; 10 mg/kg/day oral gavage,71.9 ± 6.5^d mg/g
same,Liver lipids Triacylglycerol,[1]; 10 mg/kg/day oral gavage,49.9 ± 8.0^d μmol/g
same,Liver lipids Total lipid,[1]; 20 mg/kg/day oral gavage,66.1 ± 6.9^e mg/g
same,Liver lipids Triacylglycerol,[1]; 20 mg/kg/day oral gavage,42.8 ± 6.5^f μmol/g
same,Liver lipids Total lipid,[1]; 40 mg/kg/day oral gavage,60.2 ± 5.2^f mg/g
same,Liver lipids Triacylglycerol,[1]; 40 mg/kg/day oral gavage,40.8 ± 4.6^f μmol/g
same,hepatocellular ballooning mean score,hepatocytes of HFD mice; 10 mg/kg/day oral gavage,0.7±0.1
same,hepatocellular ballooning mean score,hepatocytes of HFD mice; 20 mg/kg/day oral gavage,0.5±0.2
same,hepatocellular ballooning mean score,hepatocytes of HFD mice; 40 mg/kg/day oral gavage,0.4±0.1
same,liver mRNA level of PEPCK,PEPCK; 10 mg/kg/day oral gavage,significantly reduced
same,liver mRNA level of PEPCK,PEPCK; 20 mg/kg/day oral gavage,significantly reduced
same,liver mRNA level of PEPCK,PEPCK; 40 mg/kg/day oral gavage,significantly reduced
same,liver mRNA level of 11β-HSD1,11β-HSD1; 10 mg/kg/day oral gavage,significantly reduced
same,liver mRNA level of 11β-HSD1,11β-HSD1; 20 mg/kg/day oral gavage,significantly reduced
same,liver mRNA level of 11β-HSD1,11β-HSD1; 40 mg/kg/day oral gavage,significantly reduced

# Reference: patent US9877980B2, “Method and composition for treatment or prevention of type 2 diabetes and hyperlipidemia” (Chun-Ching Shih, priority 2016, dated 2018)
